Results published in patent US4278663A, “Antibiotic X-14868A, B, C and D” (Hoffmann-La Roche Inc., priority 1980, dated 1981).
Converted amounts (≈) assume the structure as drawn. Read-outs that look alike come from different tables or passages of the source.

What was measured:
[1] = tested on: Sarcina lutea PCI ATCC 9341; assay: Antimicrobial activity, Minimum Inhibitory Concentration (Table 4); assay type: cell-based; conditions: G (+) cocci
[2] = tested on: Paecilomyces varioti M16 ATCC 26820; assay: as above; assay type: cell-based; conditions: Molds
[3] = tested on: Mycobacterium phlei 78 ATCC 355; assay: as above; assay type: cell-based; conditions: G (+) filaments
[4] = tested on: Treponema hyodysenteriae; assay: Minimum Inhibitory Concentration against Treponema hyodysenteriae (Table 7); assay type: cell-based; conditions: for MIC: Brachyspira hyodysenteriae
Source text: The compound was examined for activity against Treponema hyodysenteriae, the etiologic agent of swine dysentery. The results which represent a comparative test following well-known test methods versus a known agent in the treatment and prevention of swine dysentery are set forth in the table below.

[5] = tested on: ruminants; assay: Growth promotion / efficiency of feed utilization in ruminants; assay type: in vivo; conditions: result in words
[6] = tested on: Staphylococcus aureus 82 ATCC 6538p; assay: Antimicrobial activity, Minimum Inhibitory Concentration (Table 4); assay type: cell-based; conditions: G (+) cocci
[7] = tested on: in vitro rumen fermentations; assay: Volatile fatty acid ratio in in vitro rumen fermentations (Table 6); parameters: species or system steer; conditions: for VFA Molor Ratio C3 /(C2 +nC4): four hours, 38° C.; for % Positive Control: relative to monensin 50 ppm
Experimental: Rumen fluid is obtained from a steer with a fistulated rumen. The steer is maintained on the following ration:
The rumen fluid is immediately strained through a #30 mesh sieve. For each fermentation, 75 ml of the resulting fluid is added to a 250 ml flask containing the following:
1 g of 80%:20% finely ground grain: hay ration;
60 micromoles of each of the 10 essential amino acids (arginine, histidine, leucine, methionine, threonine, valine, lysine, isoleucine, phenylalanine,tryptophan);
Each flask is incubated at 38° C. in a shaking water bath equipped with a gassing hood. Carbon dioxide is continuously passed through the hood. […] The resulting fluid is permitted to sit at room temperature for 30 minutes. The fluid is filtered through a […] Millipore filter and refrigerated until gas-liquid chromatographic analysis for volatile fatty acids.

[8] = tested on: Penicillin digitatum 0184 ATCC 26821; assay: Antimicrobial activity, Minimum Inhibitory Concentration (Table 4); assay type: cell-based; conditions: Molds
[9] = tested on: Streptomyces cellulosae 097 ATCC 3313; assay: as above; assay type: cell-based; conditions: G (+) filaments
[10] = tested on: Streptococcus faecium ATCC 8043; assay: as above; assay type: cell-based; conditions: G (+) cocci
[11] = tested on: Bacillus sp.E ATCC 27859; assay: as above; assay type: cell-based; conditions: G (+) rods
[12] = tested on: Candida albicans 155 NRRL 477; assay: as above; assay type: cell-based; conditions: Yeast
[13] = tested on: Saccharomyces cerevisiae 90 NRRL 4226; assay: as above; assay type: cell-based; conditions: Yeast
[14] = tested on: Bacillus subtilis NRRL 558; assay: as above; assay type: cell-based; conditions: G (+) rods
[15] = tested on: Bacillus megaterium 164 ATCC 8011; assay: as above; assay type: cell-based; conditions: G (+) rods

CO[C@@H]1[C@@H](OC)[C@H](C)[C@@](O)(CC(=O)O)O[C@H]1[C@H](C)[C@H]1O[C@@]2(CC[C@@](C)([C@H]3CC[C@@](C)([C@@H]4O[C@@H]([C@H]5O[C@](C)(O)[C@H](C)C[C@@H]5C)C[C@@H]4O[C@@H]4C[C@H](OC)[C@@H](OC)[C@H](C)O4)O3)O2)C[C@H](O)[C@H]1C.N [Antibiotic X-14868A]
Minimum Inhibitory Concentration [1]: 12.5 µg/mL | Minimum Inhibitory Concentration [2]: 250 µg/mL | Minimum Inhibitory Concentration [3]: 12.5 µg/mL | Minimum Inhibitory Concentration, Mean ([4]; mean of four strains): 0.05 meg/ml | Minimum Inhibitory Concentration ([4]; strain B 169): 0.05 meg/ml | Minimum Inhibitory Concentration ([4]; strain H 140): 0.05 meg/ml | Minimum Inhibitory Concentration ([4]; strain H-78): 0.05 meg/ml | Minimum Inhibitory Concentration ([4]; strain SQ 2): 0.05 meg/ml | efficiency of feed utilization in ruminant animals ([5]; oral): increases the efficiency of feed utilization in ruminant animals | activity as a growth promotant in ruminants [5]: exhibit activity as a growth promotant in ruminants | Minimum Inhibitory Concentration [6]: 6.25 µg/mL | VFA Molor Ratio C3 /(C2 +nC4) ([7]; 5 ppm): 0.323 | % Positive Control ([7]; 5 ppm): 82.5% | VFA Molor Ratio C3 /(C2 +nC4) ([7]; 50 ppm): 0.358 | % Positive Control ([7]; 50 ppm): 91.2% | Minimum Inhibitory Concentration [8]: 1000 µg/mL | Minimum Inhibitory Concentration [9]: 25 µg/mL | Minimum Inhibitory Concentration [10]: 0.313 µg/mL | Minimum Inhibitory Concentration [11]: 0.39 µg/mL | Minimum Inhibitory Concentration [12]: 250 µg/mL | Minimum Inhibitory Concentration [13]: 1000 µg/mL | Minimum Inhibitory Concentration [14]: 12.5 µg/mL | Minimum Inhibitory Concentration [15]: 12.5 µg/mL

CC(C)c1ncc([N+](=O)[O-])n1C [Ipronidazole, reference compound]
MIC ([4]; mean of four strains, read-out: Minimum Inhibitory Concentration, Mean): 1.1 µg/mL (≈ 6.5 µM) | MIC ([4]; strain B 169, read-out: Minimum Inhibitory Concentration): 0.63 µg/mL (≈ 3.72 µM) | MIC ([4]; strain H 140, read-out: Minimum Inhibitory Concentration): 0.63 µg/mL (≈ 3.72 µM) | MIC ([4]; strain H-78, read-out: Minimum Inhibitory Concentration): 0.63 µg/mL (≈ 3.72 µM) | MIC ([4]; strain SQ 2, read-out: Minimum Inhibitory Concentration): 2.5 µg/mL (≈ 14.8 µM)

CC[C@@]1([C@@H]2O[C@@H]([C@H]3O[C@@](O)(CO)[C@H](C)C[C@@H]3C)C[C@@H]2C)CC[C@H]([C@]2(C)CC[C@]3(C[C@H](O)[C@@H](C)[C@@H]([C@@H](C)[C@@H](OC)[C@H](C)C(=O)O)O3)O2)O1 [Monensin, reference compound]
VFA Molor Ratio C3 /(C2 +nC4) ([7]; 50 ppm): 0.392 | % Positive Control ([7]; 50 ppm): 100.0%
